Data reported in patent publication US11446287B2, “Compounds and methods for EP300 or CBP modulation and indications therefor” (Opna Immuno-Oncology SA, priority 2019, dated 2022).

Target: T1, Recombinant human EP300 containing the bromodomain (EP300-BD (1040-1161)) (Homo sapiens, UniProt Q09472)
T1 construct: Recombinant human EP300 bromodomain (EP300-BD (1040-1161)); made in house; host or cells: E. coli BL21-CodonPlus (DE3), modified pET vector
T1 sequence (Q09472 1040-1161): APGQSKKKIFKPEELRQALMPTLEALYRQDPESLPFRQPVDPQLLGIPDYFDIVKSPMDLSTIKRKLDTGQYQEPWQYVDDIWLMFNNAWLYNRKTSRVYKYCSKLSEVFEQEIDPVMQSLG
Experiment: EP300 Alphascreen binding assay
Summary of the method: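 Displacement of a biotinylated acetyl-K56 histone H3 peptide from the N-His bromodomain construct (1040-1161) measured by AlphaScreen proximity, beads at 7.5 μg/ml final, read 60 min after addition. Protein, peptide and compound first incubated 1 h at room temperature, pH 7.5 HEPES buffer; IC50 by four-parameter logistic fit.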

| Structure (SMILES) | IC50 [µM] |
| --- | --- |
| Cc1noc(C)c1-c1cnc2c(c1)c(-c1ccc(C(=O)O)cc1)cn2[C@@H](C)c1ccccn1 [P-0001, (S)-4-(5-(3,5-dimethylisoxazol-4-yl)-1-(1-(pyridin-2-yl)ethyl)-1H-pyrrolo[2,3-b]pyridin-3-yl)benzoic acid] | 0.0001 to 1 |
| Cc1noc(C)c1-c1cnc2c(c1)c(-c1ccc(C(=O)O)cc1)cn2C(c1ccccn1)C1CCCC1 (stereo not shown) [P-0002, 4-(1-(cyclopentyl(pyridin-2-yl)methyl)-5-(3,5-dimethylisoxazol-4-yl)-1H-pyrrolo[2,3-b]pyridin-3-yl)benzoic acid] | 0.0001 to 1 |
| Cc1noc(C)c1-c1cnc2c(c1)c(-c1ccccc1)cn2C(c1ccccn1)C1CCCC1 (stereo not shown) [P-0003, 4-(1-(cyclopentyl(pyridin-2-yl)methyl)-3-phenyl-1H-pyrrolo[2,3-b]pyridin-5-yl)-3,5-dimethylisoxazole] | 8 to 1000 |
| Cc1noc(C)c1-c1cnc2c(c1)c(-c1ccc(C(=O)O)cc1)cn2C(c1ccccn1)C1CCCCC1 (stereo not shown) [P-0004, 4-(1-(cyclohexyl(pyridin-2-yl)methyl)-5-(3,5-dimethylisoxazol-4-yl)-1H-pyrrolo[2,3-b]pyridin-3-yl)benzoic acid] | 0.0001 to 1 |
| COC(=O)c1ccc(-c2cn(S(=O)(=O)c3ccc(C)cc3)c3ncc(-c4c(C)noc4C)cc23)cc1 [P-0005, methyl 4-(5-(3,5-dimethylisoxazol-4-yl)-1-tosyl-1H-pyrrolo[2,3-b]pyridin-3-yl)benzoate] | 8 to 1000 |
| Cc1noc(C)c1-c1cnc2c(c1)c(-c1ccnc(C(=O)O)c1)cn2S(=O)(=O)c1ccccc1 [P-0055, 4-(5-(3,5-dimethylisoxazol-4-yl)-1-(phenylsulfonyl)-1H-pyrrolo[2,3-b]pyridin-3-yl)picolinic acid] | 0.0001 to 1 |
| COc1cccc(Cn2cc(-c3cccc(C(=O)O)c3)c3cc(-c4c(C)noc4C)cnc32)c1 [P-0056, 3-(5-(3,5-dimethylisoxazol-4-yl)-1-(3-methoxybenzyl)-1H-pyrrolo[2,3-]pyridin-3-yl)benzoic acid] | 0.0001 to 1 |
| COc1cccc(Cn2cc(-c3ccnc(C(=O)O)c3)c3cc(-c4c(C)noc4C)cnc32)c1 [P-0057, 4-(5-(3,5-dimethylisoxazol-4-yl)-1-(3-methoxybenzyl)-1H-pyrrolo[2,3-b]pyridin-3-yl)picolinic acid] | 0.0001 to 1 |
| Cc1noc(C)c1-c1cnc2c(c1)c(-c1cccc(C(=O)O)c1)cn2C(C1CC1)C1CC1 [P-0058, 3-(1-(dicyclopropylmethyl)-5-(3,5-dimethylisoxazol-4-yl)-1H-pyrrolo[2,3-b]pyridin-3-yl)benzoic acid] | 0.0001 to 1 |
| Cc1noc(C)c1-c1cnc2c(c1)c(-c1cccc(C(=O)O)c1)cn2Cc1cccc(OC(F)(F)F)c1 [P-0059, 3-(5-(3,5-dimethylisoxazol-4-yl)-1-(3-(trifluoromethoxy)benzyl)-1H-pyrrolo[2,3-b]pyridin-3-yl)benzoic acid] | 0.0001 to 1 |
| Cc1noc(C)c1-c1cnc2c(c1)c(-c1cccc(C(=O)O)c1)cn2Cc1cccc(F)c1 [P-0060, 3-(5-(3,5-dimethylisoxazol-4-yl)-1-(3-fluorobenzyl)-1H-pyrrolo[2,3-b]pyridin-3-yl)benzoic acid] | 0.0001 to 1 |
| Cc1noc(C)c1-c1cnc2c(c1)c(-c1cccc(C(=O)O)c1)cn2Cc1cccc(Cl)c1 [P-0061, 3-(1-(3-chlorobenzyl)-5-(3,5-dimethylisoxazol-4-yl)-1H-pyrrolo[2,3-b]pyridin-3-yl)benzoic acid] | 0.0001 to 1 |
| Cc1cccc(Cn2cc(-c3cccc(C(=O)O)c3)c3cc(-c4c(C)noc4C)cnc32)c1 [P-0062, 3-(5-(3,5-dimethylisoxazol-4-yl)-1-(3-methylbenzyl)-1H-pyrrolo[2,3-b]pyridin-3-yl)benzoic acid] | 0.0001 to 1 |
| Cc1noc(C)c1-c1cnc2c(c1)c(-c1cccc(C(=O)O)c1)cn2Cc1cccc(C(F)(F)F)c1 [P-0063, 3-(5-(3,5-dimethylisoxazol-4-yl)-1-(3-(trifluoromethyl)benzyl)-1H-pyrrolo[2,3-b]pyridin-3-yl)benzoic acid] | 0.0001 to 1 |
| Cc1noc(C)c1-c1cnc2c(CC3CCC3)cn(-c3ccc(C(=O)O)cc3OC(F)F)c2c1 [P-0064, 4-(3-(cyclobutylmethyl)-6-(3,5-dimethylisoxazol-4-yl)-1H-pyrrolo[3,2-b]pyridin-1-yl)-3-(difluoromethoxy)benzoic acid] | 0.0001 to 1 |
| Cc1noc(C)c1-c1cnc2c(CC3CC3)cn(-c3ccnc(C(=O)O)c3)c2c1 [P-0065, 4-(3-(cyclopropylmethyl)-6-(3,5-dimethylisoxazol-4-yl)-1H-pyrrolo[3,2-b]pyridin-1-yl)picolinic acid] | 0.0001 to 1 |
| Cc1noc(C)c1-c1cnc2c(CC3CCC3)cn(-c3ccc(C(=O)O)cc3OC(F)(F)F)c2c1 [P-0066, 4-(3-(cyclobutylmethyl)-6-(3,5-dimethylisoxazol-4-yl)-1H-pyrrolo[3,2-b]pyridin-1-yl)-3-(trifluoromethoxy)benzoic acid] | 0.0001 to 1 |

| Structure (SMILES) | IC50 [µM] |
| --- | --- |
| COc1cc(C(=O)O)cc(OC)c1-n1cc(CC2CCC2)c2ncc(-c3c(C)noc3C)cc21 [P-0067, 4-(3-(cyclobutylmethyl)-6-(3,5-dimethylisoxazol-4-yl)-1H-pyrrolo[3,2-b]pyridin-1-yl)-3,5-dimethoxybenzoic acid] | 0.0001 to 1 |
| Cc1noc(C)c1-c1cnc2c(CC3CCC3)cn(-c3ccc(S(C)(=O)=O)c(F)c3)c2c1 [P-0068, 4-(3-(cyclobutylmethyl)-1-(3-fluoro-4-(methylsulfonyl)phenyl)-1H-pyrrolo[3,2-b]pyridin-6-yl)-3,5-dimethylisoxazole] | 0.0001 to 1 |
| Cc1noc(C)c1-c1cnc2c(c1)c(C#CC(=O)O)cn2Cc1ccccc1 [P-0069, 3-(1-benzyl-5-(3,5-dimethylisoxazol-4-yl)-1H-pyrrolo[2,3-b]pyridin-3-yl)propiolic acid] | 0.0001 to 1 |
| Cc1noc(C)c1-c1cnc2c(c1)c(-c1ccc(C(=O)O)cc1OC(F)(F)F)cn2[C@@H](C)c1ccccn1 [P-0070, (S)-4-(5-(3,5-dimethylisoxazol-4-yl)-1-(1-(pyridin-2-yl)ethyl)-1H-pyrrolo[2,3-b]pyridin-3-yl)-3-(trifluoromethoxy)benzoic acid] | 0.0001 to 1 |
| Cc1noc(C)c1-c1cnc2c(c1)c(-c1ccc(C(=O)O)cc1OC(F)F)cn2[C@@H](C)c1ccccn1 [P-0071, (S)-3-(difluoromethoxy)-4-(5-(3,5-dimethylisoxazol-4-yl)-1-(1-(pyridin-2-yl)ethyl)-1H-pyrrolo[2,3-b]pyridin-3-yl)benzoic acid] | 0.0001 to 1 |
| Cc1noc(C)c1-c1cnc2c(c1)c(-c1cccc(C(=O)O)c1)cn2C(C1CCC1)C1CCC1 [P-0072, 3-(1-(dicyclobutylmethyl)-5-(3,5-dimethylisoxazol-4-yl)-1H-pyrrolo[2,3-b]pyridin-3-yl)benzoic acid] | 0.0001 to 1 |
| Cc1noc(C)c1-c1cnc2c(c1)c(-c1cccc(C(=O)O)c1)cn2C(c1ccccn1)C1CCC1 (stereo not shown) [P-0073, 3-(1-(cyclobutyl(pyridin-2-yl)methyl)-5-(3,5-dimethylisoxazol-4-yl)-1H-pyrrolo[2,3-b]pyridin-3-yl)benzoic acid] | 0.0001 to 1 |
| Cc1noc(C)c1-c1cnc2c(CC3CCC3)cn(-c3c(Cl)cc(C(=O)O)cc3Cl)c2c1 [P-0074, 3,5-dichloro-4-(3-(cyclobutylmethyl)-6-(3,5-dimethylisoxazol-4-yl)-1H-pyrrolo[3,2-b]pyridin-1-yl)benzoic acid] | 0.0001 to 1 |
| Cc1cc(C(=O)O)cnc1-n1cc(CC2CCC2)c2ncc(-c3c(C)noc3C)cc21 [P-0075, 6-(3-(cyclobutylmethyl)-6-(3,5-dimethylisoxazol-4-yl)-1H-pyrrolo[3,2-b]pyridin-1-yl)-5-methylnicotinic acid] | 0.0001 to 1 |
| Cc1noc(C)c1-c1cnc2c(CC3CCC3)cn(-c3ccc(C#N)cc3)c2c1 [P-0076, 4-(3-(cyclobutylmethyl)-6-(3,5-dimethylisoxazol-4-yl)-1H-pyrrolo[3,2-b]pyridin-1-yl)benzonitrile] | 1 to 8 |
| Cc1noc(C)c1-c1cnc2c(CC3CCC3)cn(-c3ccnc(C#N)c3)c2c1 [P-0077, 4-(3-(cyclobutylmethyl)-6-(3,5-dimethylisoxazol-4-yl)-1H-pyrrolo[3,2-b]pyridin-1-yl)picolinonitrile] | 0.0001 to 1 |
| Cc1noc(C)c1-c1cnc2c(c1)c(-c1cccc(C(=O)NC#N)c1)cn2Cc1ccccc1 [P-0078, 3-(1-benzyl-5-(3,5-dimethylisoxazol-4-yl)-1H-pyrrolo[2,3-b]pyridin-3-yl)-N-cyanobenzamide] | 0.0001 to 1 |
| Cc1noc(C)c1-c1cnc2c(c1)c(-c1cccc(C(=O)NO)c1)cn2Cc1ccccc1 [P-0079, 3-(1-benzyl-5-(3,5-dimethylisoxazol-4-yl)-1H-pyrrolo[2,3-b]pyridin-3-yl)-N-hydroxybenzamide] | 0.0001 to 1 |
| Cc1noc(C)c1-c1cnc2c(c1)c(-c1ccc(C(=O)O)cc1)cn2C(C)c1ccccn1 (stereo not shown) [P-0080, 4-(5-(3,5-dimethylisoxazol-4-yl)-1-(1-(pyridin-2-yl)ethyl)-1H-pyrrolo[2,3-b]pyridin-3-yl)benzoic acid] | 1 to 8 |
| Cc1noc(C)c1-c1cnc2c(c1)c(-c1cccc(S(N)(=O)=O)c1)cn2Cc1ccccc1 [P-0081, 3-(1-benzyl-5-(3,5-dimethylisoxazol-4-yl)-1H-pyrrolo[2,3-b]pyridin-3-yl)benzenesulfonamide] | 0.0001 to 1 |
| CNS(=O)(=O)c1cccc(-c2cn(Cc3ccccc3)c3ncc(-c4c(C)noc4C)cc23)c1 [P-0082, 3-(1-benzyl-5-(3,5-dimethylisoxazol-4-yl)-1H-pyrrolo[2,3-b]pyridin-3-yl)-N-methylbenzenesulfonamide] | 1 to 8 |
| Cc1noc(C)c1-c1cnc2c(c1)c(-c1cccc(S(=O)(=O)NC3CC3)c1)cn2Cc1ccccc1 [P-0083, 3-(1-benzyl-5-(3,5-dimethylisoxazol-4-yl)-1H-pyrrolo[2,3-b]pyridin-3-yl)-N-cyclopropylbenzenesulfonamide] | 0.0001 to 1 |
